{
  "source": "patent US20080249043A1",
  "about": "“Methods and Compositions Involving Protein Kinase C-Delta” (priority 2004, published 2008)",
  "key": {"[1]": {"tested_on": "PKC-δ", "assay": "Western blotting and subcellular fractionation for PKC-δ in U937 cells", "format": "cell-based", "protocol": "U937 cells were treated with PMA (200 nM) or bortezomib (100 ng/ml) for 2 and 4 hours and cells were harvest for western blotting with antibody against PKC-δ. Same blot was probed with actin antibody as loading controls. […] U937 cells were treated with various concentrations of bortezomib and cells were subjected to subcellular fractionation to isolate mitochondria and cytoplasm. The whole cell lysates and fractions were analyzed with antibody against PKC-δ. […] U937 cells were treated with bortezomib (50 ng/ml) and/or caspase inhibitor BAF (30 μM) for 16 hours. Whole cell lysates were analyzed by western blotting with the PKC-δ antibody. […] Cells were treated with PMA (200 nM) for 6, 9 and 12 hours and subjected to subcellular fractionation. Western blot was probed with the PKC-δ antibody. M: mitochondria; C: cytoplasm.\n(§1) U937 cells were grown in RPMI with 10% fetal bovine serum and L-glutamine. Bortezomib was from Millennium Pharmaceutical Corp. (Cambridge, Mass.). Rottlerin was from Sigma (St. Louis, Mo.). PKC-δ monoclonal antibody was from BD Transduction Laboratories (San Jose, Calif.). Boc-D(Ome)-FMK (BAF) and Go6976 were from Calbiochem (San Diego, Calif.). The TUNEL assay (terminal deoxynucleotidyltransferase-mediated dUTP-biotin nick end labeling) was from Roche (Switzerland). Subcellular fractionation and western blotting were performed as described (Chen Jet al. Mol Cancer Ther. 2002;1:961-967)."}, "[2]": {"tested_on": "U937 cells", "assay": "TUNEL assay of apoptosis in U937 cells", "format": "cell-based", "settings": "for TUNEL positivity, time course: 50 ng/ml bortezomib", "protocol": "[…] Cells were harvested and fixed for TUNEL assays. The percentages of the TUNEL positive cells are indicated.\nas §1"}, "[3]": {"tested_on": "HeLa cells", "assay": "Mitochondrial potential by MitoTracker Green and flow cytometry in HeLa cells", "format": "cell-based", "settings": "50 μM Z-VAD or 5 μM CsA 30 min, then AD198 16 h", "description": "Cells were incubated with MitoTracker Green at 37° C. for 20 min followed by flow cytometry analysis. The histogram represents the means±standard deviations from three independent experiments."}, "[4]": {"tested_on": "HeLa cells", "assay": "Apoptosis by PI staining and flow cytometry (subG1 population) in HeLa cells", "format": "cell-based", "settings": "HeLa cells, 50 μM Z-VAD or 5 μM CsA 30 min, then AD198 16 h", "protocol": "Cell culture, transfection and treatment—HeLa cells were cultured in Dulbecco's modified Eagle's medium (DMEM) containing 10% fetal bovine serum, 2 mM L-glutamine and penicillin (100 units/ml)-streptomycin (100 μg/ml) at 37° C. in a humidified 5% CO2 atmosphere. HeLa cells at 90% confluence were transfected with different mammalian expression vectors using Lipofectamin 2000 according to the manufacturer's protocol (Invitrogen Inc., Carlsbad, Calif.). At 24 h or 48 h after transfection, cells were treated with 1:100 dilution of AD198 that was dissolved in dimethyl sulfoxide (DMSO). For down-regulation of PLS3, HeLa cells at 50% confluence were transfected with siRNA against PLS3 or a scrambled control. At 48 h, cells were treated with AD198 for 16 h and harvested for flow cytometry. The whole cell lysate was extracted for analysis with Western blotting.\nAnalysis of apoptosis and determination of the transmembrane potential in mitochondria—Cell death was quantified by propidium iodide (PI) staining, followed by flow cytometry (Becton-Dickinson). HeLa cells were fixed in 0.5 ml cold 70% ethanol at −20° C. overnight. Cell pellet were resuspended in 300 μl of PBS containing 0.025 mg/ml PI, 0.05% Triton X-100, 0.1 mg/ml RNase A and incubated at room temperature for 30 min. The DNA content was evaluated by FACScan. For mitochondrial potential analysis, HeLa cells were incubated with MitoTracker Green at 37° C. for 20 min. The cells were collected and washed with PBS and analyzed by FACScan.\nCell culture, transfection, selection and treatment—HeLa cells were cultured in Dulbecco's modified Eagle's medium (DMEM) with 10% fetal bovine serum, 2 mM L-glutamine, 100 units/ml penicillin and 100 μg/ml streptomycin at 37° C. HeLa cells at 90% confluence were transfected with different mammalian expression vectors or siRNA using Lipofectamin 2000 according to the manufacturer's protocol (Invitrogen Inc., Carlsbad, Calif.). At 48 h after transfection, cells were incubated with 5 μM AD198 or dimethyl sulfoxide (DMSO) for 4 h or 16 h. After transfection, cells were selected with 1 mg/ml G418 for 2 wk. After corresponding mock-transfected cells were killed by G418, the concentration of G418 was decreased to 0.5 mg/ml and maintained for another 2 wk. The whole cell lysates or subcellular fractions were extracted for Western blotting analysis (Liu et al. (2003)).\nAnalysis of apoptosis—HeLa cells were harvested and fixed in 70% ethanol at −20° C. overnight. Cells were then washed with PBS and stained with 0.025 mg/ml propidium iodide (PI), 0.05% Triton X-100, 0.1 mg/ml RNase A for 30 min at room temperature. The DNA content was analyzed by FACScan (Becton-Dickinson), and the subG0/G1 population was used to represent apoptosis."}, "[5]": {"tested_on": "PLS3", "assay": "PLS3 threonine phosphorylation: Ni-bead pulldown of His-tagged PLS3, Western blot with PT antibody, HeLa cells", "format": "cell-based", "settings": "HeLa cells, AD198 (5 μM) along with Z-VAD or CsA, 2 h", "protocol": "Pulldown of His-tagged proteins from transfected HeLa cells—Transfected HeLa cells were washed with ice-cold phosphate-buffered saline (PBS) and incubated in the lysis buffer (50 mM NaH2PO4, 500 mM NaCl, 20 mM imidazole, 1% Triton X-100, 20 mM 2-mercaptoethanol, pH8.0) for 5 min and sonicated briefly on ice. The lysates were centrifuged at 10,000×g for 10 min at 4° C. The supernatant was saved and the protein concentration was measured with the Bio-Rad protein assay (Bio-Rad Laboratories, Hercules, Calif.) and adjusted to same concentrations for each sample. The supernatants were incubated with Ni-beads on a shaker for 2 h at 4° C. Beads were then pelleted at 800×g for 2 min at 4° C. and washed with ice-cold wash buffer (50 mM NaH2PO4, 500 mM NaCl, 20 mM imidazole, 1% Triton X-100, pH8.0) for five times. Beads were resuspended in SDS sample buffer and analyzed by Western blotting.\nWestern blot analysis—Equal amounts of protein were analyzed by 10% SDS-PAGE and electrotransferred to Immobilon-P membranes (Millipore Corporation, Bedford, Mass.). Monoclonal PKC-δ, PT, and β-actin and polyclonal VDAC antibodies were used at 1:1,000 and polyclonal PLS3 antibody was used at 1:2,000 for immunoblotting. Secondary anti-mouse or anti-rabbit antibodies conjugated with horseradish peroxidase were used at 1:2,000 and incubated with the membrane for 1 h at room temperature. […]"}, "[6]": {"settings": "monomeric boronic acid; pH range of 2-6.5; cited from earlier work"}, "[7]": {"settings": "U937 cells, 2 and 4 hours, PMA 200 nM, bortezomib 100 ng/ml"}, "[8]": {"settings": "U937 cells, bortezomib 16 hours"}},
  "note": "Residues, ends and D or L forms follow the SMILES beside them. *: point of attachment. Cbz = O=C(OCc1ccccc1)*; CH2F = FC*",
  "data": [
    {"smiles": "COC(=O)CC(NC(=O)OC(C)(C)C)C(=O)CF", "note": "(stereo not drawn) [BAF, Boc-D(Ome)-FMK]", "values": [
      {"measurement": "effect on bortezomib-induced 32 kD PKC-δ band", "setting": "[1]; bortezomib (50 ng/ml) and BAF (30 μM), 16 hours", "result": "disappearance of this 32 kD band"}
    ]},
    {"smiles": "Cn1c2ccccc2c2c3c(c4c5ccccc5n(CCC#N)c4c21)CNC3=O", "note": "[Go6976]", "values": [
      {"measurement": "effect on bortezomib-induced apoptosis (TUNEL)", "setting": "[2]; Go6976 (200 nM) with bortezomib, 16 hours", "result": "could not prevent bortezomib-induced apoptosis"}
    ]},
    {"smiles": "CCCCCCCCCCCCCC(=O)O[C@@H]1[C@@H](C)[C@@]2(O)[C@@H](C=C(CO)C[C@]3(O)C(=O)C(C)=C[C@@H]23)[C@@H]2C(C)(C)[C@]12OC(C)=O", "note": "[PMA]", "values": [
      {"measurement": "PKC-δ protein level", "setting": "[1]; [7]", "result": "down-regulated PKC-δ"},
      {"measurement": "PKC-δ localization after subcellular fractionation", "setting": "[1]; U937 cells, PMA (200 nM) 6, 9 and 12 hours", "result": "full-length PKC-δ and its degradation products in mitochondria"}
    ]},
    {"smiles": "CC(NC(=O)C(NC(=O)OCc1ccccc1)C(C)C)C(=O)NC(CC(=O)O)C(=O)CF", "note": "(stereo not drawn) [Z-VAD] (Cbz-Val-Ala-Asp-CH2F; configuration not given here)", "values": [
      {"measurement": "effect on AD198-induced mitochondrial permeability transition / loss of mitochondrial potential", "setting": "[3]", "result": "could not block"},
      {"measurement": "effect on AD198-induced apoptosis", "setting": "[4]", "result": "suppressed"},
      {"measurement": "effect on AD198-induced threonine phosphorylation of PLS3", "setting": "[5]", "result": "not affected"}
    ]},
    {"smiles": "CC(C)C[C@H](NC(=O)[C@H](Cc1ccccc1)NC(=O)c1cnccn1)B(O)O", "note": "[bortezomib, [(1R)-3-methyl-1-[[(2S)-1-oxo-3-phenyl-2-[(pyrazinylcarbonyl)amino]propyl]amino]butyl] boronic acid]", "values": [
      {"measurement": "PKC-δ protein level", "setting": "[1]; [7]", "result": "induced an increase of PKC-δ"},
      {"measurement": "32 kD PKC-δ fragment", "setting": "[1]; [8]", "result": "new band at 32 kD"},
      {"measurement": "PKC-δ protein level", "setting": "[1]; [8]", "result": "the level of PKC-δ decreased"},
      {"measurement": "solubility in water", "setting": "[6]", "result": "3300 to 3800", "unit": "µg/mL"},
      {"measurement": "TUNEL positivity, time course", "setting": "[2]; 6 hours", "result": "did not become TUNEL positive"},
      {"measurement": "TUNEL positivity, time course", "setting": "[2]; 16 h", "result": "strongly positive"},
      {"measurement": "IC50", "setting": "[2]; Homo sapiens, U-937, U937 cells", "result": "0.01 to 0.05", "unit": "µg/mL"},
      {"measurement": "concentration at which cells became TUNEL positive", "setting": "[2]; U937 cells", "result": 5, "unit": "ng/mL"},
      {"measurement": "apoptosis by TUNEL assays", "setting": "[2]; bortezomib 5 ng/ml, 16 hours", "result": 8.02, "unit": "%"},
      {"measurement": "apoptosis by TUNEL assays", "setting": "[2]; bortezomib 10 ng/ml, 16 hours", "result": 19.85, "unit": "%"},
      {"measurement": "apoptosis by TUNEL assays", "setting": "[2]; bortezomib 50 ng/ml, 16 hours", "result": 76.07, "unit": "%"}
    ]},
    {"smiles": "CC(=O)c1c(O)c(C)c(O)c(Cc2c(O)c3c(c(C(=O)/C=C/c4ccccc4)c2O)OC(C)(C)C=C3)c1O", "note": "[rottlerin]", "values": [
      {"measurement": "TUNEL positive cells with addition of rottlerin", "setting": "[2]; bortezomib 5 ng/ml + rottlerin (10 μM), 16 hours", "result": 4.35, "unit": "%"},
      {"measurement": "TUNEL positive cells with addition of rottlerin", "setting": "[2]; bortezomib 10 ng/ml + rottlerin (10 μM), 16 hours", "result": 8.55, "unit": "%"},
      {"measurement": "TUNEL positive cells with addition of rottlerin", "setting": "[2]; bortezomib 50 ng/ml + rottlerin (10 μM), 16 hours", "result": 33.07, "unit": "%"}
    ]}
  ]
}
